In patent publication US20250115576A1, “THERAPEUTIC COMPOUNDS AND METHODS OF USE THEREOF” (Genentech, Inc., priority 2018, published 2025):
pIC50: −log10 of the molar value. Counter-ions that a name gives are not always drawn.

Columns and labels:
hNav1.7 [1] = molecular target: T1, hNav1.7 (Homo sapiens (Human), UniProt Q15858); assay: Patch voltage clamp electrophysiology (EP), Syncropatch 384PE, CHO cells stably expressing Nav1.7; type: cell-based; details: holding potential −50 mV, 7.5 min compound incubation, read-out: EP_SP hNav1.7 EVO IC50
Source text: Example 64c. Electrophysiological Assay (EP) (In Vitro Assay)
Patch voltage clamp electrophysiology allows for the direct measurement and quantification of block of voltage-gated sodium channels (NaV's), and allows the determination of the time- and voltage-dependence of block which has been interpreted as differential binding to the resting, open, and inactivated states of the sodium channel (Hille, B., Journal of General Physiology (1977), 69: 497-515).
The following voltage clamp electrophysiology studies are performed on representative compounds using cells heterologously expressing Nav1.7 or Nav1.5 channels. cDNAs for Nav1.7 (NM_002977) and Nav1.5 (AC137587) are stably expressed in Chinese Hamstr Ovary (CHO) cells and CHL (Chinese Hamster Lung) cells respectively. Sodium currents are measured in the whole-cell configuration using Syncropatch 384PE (Nanlon Technologies, Germany). 1NPC®-384 chips with custom medium resistance and single hole mode are used. Internal solution consists of (in mM): […], 10 CsCl, 20 EGTA, and 10 Hepes (pH adjusted to 7.2); and external solution contains (in mM): 60 NMDG, 80 NaCl, 4 KCl, 1 MgCl2, 2 CaCl2, 2 D-Glucose monohydrate, 10 Hepes (pH adjusted to 7.4 with NaOH).
After system flushing, testing compounds are dissolved in external solution containing 0.1% Pluronic F-127. The chip is moved into the measuring head and the instrument primes the chip with external and internal solutions. 10 μl cells are added to the chip from a cell hotel, and a negative pressure of −50 mBar is applied to form a seal. Following treatment with seal enhancer solution and wash-off with external solution, negative pressure of −250 mbar is applied for 1 second to achieve the whole-cell configuration, followed by three washing steps in external solution. 20 μl of compounds is added to 40 μl in each well (1:3 dilution of compounds), and after mixing, 20 μl is removed so the volume is retained at 40 ul. After approximately 13 minutes recordings, 20 μl/well of 2 uM TTX, or 333 uM Tetracaine (for […]) is added to achieve full block.
For voltage protocol, an holding potential of −50 mV is applied during the whole experiment. A depolarizing step is applied to −10 mV for 10 ms, followed by a hyperpolarization step to −150 mV for 20 ms to allow channel recovery from inactivation. A second depolarizing step is applied from −150 mV to −10 mV for 10 ms, where currents are measured to derive blocking effects of compounds. Inhibition is determined based on 7.5 min of compound incubation.
Target sequence in this assay (Q15858 other isoform, or with tags, fused parts or gaps): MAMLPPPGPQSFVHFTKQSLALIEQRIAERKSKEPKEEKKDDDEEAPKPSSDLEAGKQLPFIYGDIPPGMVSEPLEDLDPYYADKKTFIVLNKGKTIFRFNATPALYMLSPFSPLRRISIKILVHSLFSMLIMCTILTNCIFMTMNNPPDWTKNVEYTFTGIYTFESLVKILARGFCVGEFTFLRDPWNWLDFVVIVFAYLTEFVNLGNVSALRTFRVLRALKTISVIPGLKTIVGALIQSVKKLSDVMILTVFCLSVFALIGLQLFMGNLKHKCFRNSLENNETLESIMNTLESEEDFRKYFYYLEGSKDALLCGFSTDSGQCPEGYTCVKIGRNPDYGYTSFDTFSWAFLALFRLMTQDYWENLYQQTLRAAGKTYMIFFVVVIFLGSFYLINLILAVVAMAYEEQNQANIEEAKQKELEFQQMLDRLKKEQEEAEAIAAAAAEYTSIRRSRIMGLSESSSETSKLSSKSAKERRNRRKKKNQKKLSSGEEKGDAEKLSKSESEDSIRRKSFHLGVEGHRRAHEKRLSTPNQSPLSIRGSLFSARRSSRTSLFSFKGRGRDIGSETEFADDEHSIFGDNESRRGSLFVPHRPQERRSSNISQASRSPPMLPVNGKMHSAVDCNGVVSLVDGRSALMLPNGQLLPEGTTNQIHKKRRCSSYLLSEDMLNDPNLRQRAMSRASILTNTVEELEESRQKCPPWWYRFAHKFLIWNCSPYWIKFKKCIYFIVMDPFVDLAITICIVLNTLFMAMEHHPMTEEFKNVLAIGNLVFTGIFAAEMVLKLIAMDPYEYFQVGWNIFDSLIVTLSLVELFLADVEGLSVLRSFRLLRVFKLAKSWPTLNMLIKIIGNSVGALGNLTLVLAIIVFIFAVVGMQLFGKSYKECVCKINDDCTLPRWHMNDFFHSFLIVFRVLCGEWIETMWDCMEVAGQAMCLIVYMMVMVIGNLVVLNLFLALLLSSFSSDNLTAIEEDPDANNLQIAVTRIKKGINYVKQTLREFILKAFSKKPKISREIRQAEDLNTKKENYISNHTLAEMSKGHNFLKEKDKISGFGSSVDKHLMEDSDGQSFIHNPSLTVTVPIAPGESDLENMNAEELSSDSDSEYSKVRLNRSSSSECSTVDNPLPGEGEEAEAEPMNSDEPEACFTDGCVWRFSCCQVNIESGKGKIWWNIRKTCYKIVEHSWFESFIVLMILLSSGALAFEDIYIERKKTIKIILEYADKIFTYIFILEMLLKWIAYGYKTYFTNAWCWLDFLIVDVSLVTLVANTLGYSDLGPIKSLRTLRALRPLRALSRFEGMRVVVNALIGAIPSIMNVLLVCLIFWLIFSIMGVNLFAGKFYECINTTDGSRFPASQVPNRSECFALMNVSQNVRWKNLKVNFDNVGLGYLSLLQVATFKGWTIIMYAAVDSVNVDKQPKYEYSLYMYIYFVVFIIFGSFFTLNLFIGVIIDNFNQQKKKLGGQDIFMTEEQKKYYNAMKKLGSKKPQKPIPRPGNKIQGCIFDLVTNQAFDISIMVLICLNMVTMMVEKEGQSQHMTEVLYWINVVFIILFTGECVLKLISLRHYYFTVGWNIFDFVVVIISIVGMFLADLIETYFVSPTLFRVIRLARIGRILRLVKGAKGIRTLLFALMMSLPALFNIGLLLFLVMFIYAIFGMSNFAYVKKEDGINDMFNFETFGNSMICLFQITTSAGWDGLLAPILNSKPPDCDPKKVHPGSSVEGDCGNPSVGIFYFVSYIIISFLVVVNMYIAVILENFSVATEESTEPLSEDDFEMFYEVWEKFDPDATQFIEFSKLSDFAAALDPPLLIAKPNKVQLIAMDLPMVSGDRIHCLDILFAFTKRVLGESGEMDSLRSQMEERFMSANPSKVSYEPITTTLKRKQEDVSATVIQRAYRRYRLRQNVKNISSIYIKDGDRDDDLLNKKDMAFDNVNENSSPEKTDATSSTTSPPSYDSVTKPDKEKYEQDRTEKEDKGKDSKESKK

hNav1.7 [2] = molecular target: T1, hNav1.7; assay: Tritiated compound binding to membranes from cells expressing hNav1.7 and the β1 subunit (Nav1.7 LBA); details: competitive binding vs [3H]compound, membranes with hNav1.7 and β1 subunit; read-out: Nav1.7 LBA EVO IC50
Description: Example 64a. Tritiated Compound Binding to Membranes Isolated from Cells that Heterologously Express hNav1.7 and the β 1 Subunit
Preparation of membranes containing recombinantly expressed sodium channels: Frozen recombinant cell pellets are thawed on ice and diluted to 4 times the cell pellet weight with ice cold 50 mM Tris HCl, pH 7.4 buffer. The cell suspensions are homogenized on ice using a motorized glass dounce homogeniser. Homogenates are further diluted 8.4 times with ice cold 50 mM Tris HCl, pH 7.4 buffer and then centrifuged at 200×g at 4° C. for 15 minutes. The supernatants are collected and centrifuged at 10000×g at 4° C. for 50 min. The pellets are then re-suspended in 100 mM NaCl, 20 mM Tris HCl, pH 7.4 buffer containing 1% v/v protease inhibitors (Calbiochem) and re-homogenized on ice. The homogenized membranes are then processed through a syringe equipped with a 26 gauge needle. Protein concentrations arer determined by Bradford Assay and the membranes are stored at −80° C.
Radioligand Binding Studies: Saturation experiments. A competitive NaV1.7 inhibitor having a methyl group is tritiated. Three tritiums are incorporated in place of methyl hydrogens to generate [^3H]compound. Binding of this radioligand is performed in 5 mL borosilicate glass test tubes at room temperature. Binding is initiated by adding membranes to increasing concentrations of [^3H]compound in 100 mM NaCl, 20 mM Tris HCl, pH 7.4 buffer containing 0.01% w/v bovine serum albumin (BSA) for 18 h. Non-specific binding is determined in the presence of 1 μM unlabeled compound. After 18 h, the reactants are filtered through GF/C glass fiber filters presoaked in 0.5% w/v polyethylene imine. […] [^3H]compound bound to filters is quantified by liquid scintillation counting.
Competitive binding experiments: Binding reactions are performed in 96-well polypropylene plates at room temperature for 18 h. […] Bound radioactivity is determined by liquid scintillation counting.
Data Analysis: For saturation experiments, non-specific binding is subtracted from total binding to provide specific binding and these values are recalculated in terms of pmol ligand bound per mg protein. Saturation curves are constructed and dissociation constants are calculated using the single site ligand binding model: Beq=(Bmax*X)/(X+Kd), where Beq is the amount of ligand bound at equilibrium, Bmax is the maximum receptor density, Kd is the dissociation constant for the ligand, and X is the free ligand concentration. For competition studies percent inhibition is determined and IC50 values are calculated using a 4 parameter logistic model (% inhibition=(A+((B−A)/(1+((x/C)^D)))) using XLfit, where A and B are the maximal and minimum inhibition respectively, C is the IC50 concentration and D is the (Hill) slope. […]
Target sequence in this assay (Q15858 whole entry, looked up): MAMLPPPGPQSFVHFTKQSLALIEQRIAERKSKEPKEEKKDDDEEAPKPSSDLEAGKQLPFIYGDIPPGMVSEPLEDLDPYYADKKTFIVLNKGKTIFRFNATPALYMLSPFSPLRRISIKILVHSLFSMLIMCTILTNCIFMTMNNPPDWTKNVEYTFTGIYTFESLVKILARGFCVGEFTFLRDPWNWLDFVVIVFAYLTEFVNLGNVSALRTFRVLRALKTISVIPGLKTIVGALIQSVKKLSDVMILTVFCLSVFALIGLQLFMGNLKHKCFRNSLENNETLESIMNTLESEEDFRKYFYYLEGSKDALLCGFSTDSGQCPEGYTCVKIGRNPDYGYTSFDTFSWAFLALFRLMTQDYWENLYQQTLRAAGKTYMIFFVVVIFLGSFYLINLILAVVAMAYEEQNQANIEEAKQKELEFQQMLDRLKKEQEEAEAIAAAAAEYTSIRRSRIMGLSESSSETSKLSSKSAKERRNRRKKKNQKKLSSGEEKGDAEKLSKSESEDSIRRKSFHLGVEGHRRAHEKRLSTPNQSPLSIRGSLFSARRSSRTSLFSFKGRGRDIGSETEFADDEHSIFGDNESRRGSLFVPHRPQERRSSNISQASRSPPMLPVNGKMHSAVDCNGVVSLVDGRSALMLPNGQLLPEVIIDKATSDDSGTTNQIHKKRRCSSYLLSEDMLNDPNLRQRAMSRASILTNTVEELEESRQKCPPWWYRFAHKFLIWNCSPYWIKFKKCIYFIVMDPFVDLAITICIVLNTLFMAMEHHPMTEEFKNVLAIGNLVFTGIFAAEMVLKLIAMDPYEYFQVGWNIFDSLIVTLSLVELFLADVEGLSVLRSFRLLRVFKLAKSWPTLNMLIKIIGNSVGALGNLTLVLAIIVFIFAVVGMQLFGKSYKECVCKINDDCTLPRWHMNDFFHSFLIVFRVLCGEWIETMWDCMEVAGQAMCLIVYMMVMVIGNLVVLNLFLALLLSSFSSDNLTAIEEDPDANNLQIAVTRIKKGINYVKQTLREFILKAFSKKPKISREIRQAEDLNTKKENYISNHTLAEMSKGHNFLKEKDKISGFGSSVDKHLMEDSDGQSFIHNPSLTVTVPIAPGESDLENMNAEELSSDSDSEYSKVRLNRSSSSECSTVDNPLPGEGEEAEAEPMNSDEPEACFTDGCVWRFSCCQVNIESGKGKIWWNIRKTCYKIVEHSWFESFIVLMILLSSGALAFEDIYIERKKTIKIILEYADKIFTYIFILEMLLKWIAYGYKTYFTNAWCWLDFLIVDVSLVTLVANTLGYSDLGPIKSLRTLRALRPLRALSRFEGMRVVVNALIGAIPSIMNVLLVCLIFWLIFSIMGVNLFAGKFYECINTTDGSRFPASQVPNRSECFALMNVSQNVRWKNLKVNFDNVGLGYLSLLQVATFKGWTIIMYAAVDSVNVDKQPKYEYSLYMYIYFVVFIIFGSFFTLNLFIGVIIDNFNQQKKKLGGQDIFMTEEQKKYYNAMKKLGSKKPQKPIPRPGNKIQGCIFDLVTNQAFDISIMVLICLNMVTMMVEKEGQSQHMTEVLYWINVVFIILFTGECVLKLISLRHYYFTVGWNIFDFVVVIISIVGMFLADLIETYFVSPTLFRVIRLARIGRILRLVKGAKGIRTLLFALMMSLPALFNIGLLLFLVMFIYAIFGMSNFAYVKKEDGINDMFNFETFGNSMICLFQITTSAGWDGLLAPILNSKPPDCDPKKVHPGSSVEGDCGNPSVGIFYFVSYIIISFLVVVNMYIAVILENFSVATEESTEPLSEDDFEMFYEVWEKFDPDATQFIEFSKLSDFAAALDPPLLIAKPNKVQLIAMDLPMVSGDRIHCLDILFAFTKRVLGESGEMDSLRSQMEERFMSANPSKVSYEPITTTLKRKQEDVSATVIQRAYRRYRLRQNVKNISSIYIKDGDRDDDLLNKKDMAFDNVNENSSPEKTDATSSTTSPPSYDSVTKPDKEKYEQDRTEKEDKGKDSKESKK
Target sequence in this assay (Q07699 whole entry partner, looked up): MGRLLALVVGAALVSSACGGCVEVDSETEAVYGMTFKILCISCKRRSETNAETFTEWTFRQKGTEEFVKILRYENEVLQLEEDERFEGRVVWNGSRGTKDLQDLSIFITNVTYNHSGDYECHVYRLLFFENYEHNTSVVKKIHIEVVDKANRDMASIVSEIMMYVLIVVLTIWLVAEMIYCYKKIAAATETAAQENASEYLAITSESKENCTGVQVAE

Row | Molecule | pIC50 (hNav1.7 [1]) | pIC50 (hNav1.7 [2])
1 | 5-Chloro-6-(((1S,2S,4S)-4-(3-chlorophenyl)-2-(dimethylamino)cyclohexyl)oxy)-N-(pyrimidin-4-yl)pyridine-3-sulfonamide [Example 27] | 9.24 | 8.15
2 | 6-(((1S,2S,4S)-4-(3-(1,1-difluoroethyl)phenyl)-2-(dimethylamino)cyclohexyl)oxy)-2-methyl-N-(pyrimidin-4-yl)pyridine-3-sulfonamide [Example 41] | 8.71 | 8.72
3 | CN(C)[C@H]1C[C@@H](c2cccc(C(F)(F)F)c2)CC[C@@H]1Nc1ccc(S(=O)(=O)Nc2ccncn2)cn1 (racemic) [Example 2, 6-(((1S,2S,4S)-2-(Dimethylamino)-4-(3-(trifluoromethyl)phenyl)cyclohexyl)amino)-N-(pyrimidin-4-yl)pyridine-3-sulfonamide] | 9.37 | 8.04
4 | Cc1nc(O[C@H]2CC[C@H](c3cccc(C(F)(F)F)n3)C[C@@H]2N(C)C)ccc1S(=O)(=O)Nc1ccncn1 [Example 51, 6-(((1S,2S,4S)-2-(dimethylamino)-4-(6-(trifluoromethyl)pyridin-2-yl)cyclohexyl)oxy)-2-methyl-N-(pyrimidin-4-yl)pyridine-3-sulfonamide] | 8.34 | 9.01
5 | Cc1nc(O[C@H]2CC[C@H](c3cccc(OC(F)F)c3)C[C@@H]2N(C)C)ccc1S(=O)(=O)Nc1ccncn1 [Example 52, 6-(((1S,2S,4S)-4-(3-(difluoromethoxy)phenyl)-2-(dimethylamino)cyclohexyl)oxy)-2-methyl-N-(pyrimidin-4-yl)pyridine-3-sulfonamide] | 8.74 | –
6 | Cc1nc(O[C@H]2CC[C@H](c3cccc(C(F)(F)F)c3)C[C@@H]2N(C)C)c(F)cc1S(=O)(=O)Nc1ccncn1 [Example 53, 6-(((1S,2S,4S)-2-(Dimethylamino)-4-(3-(trifluoromethyl)phenyl)cyclohexyl)oxy)-5-fluoro-2-methyl-N-(pyrimidin-4-yl)pyridine-3-sulfonamide formate] | 9.00 | –
7 | Cc1ccc(C(F)(F)F)cc1[C@H]1CC[C@H](Oc2ccc(S(=O)(=O)Nc3ccncn3)c(C)n2)[C@@H](N(C)C)C1 [Example 54, 6-(((1S,2S,4S)-2-(dimethyl-amino)-4-(2-methyl-5-(trifluoromethyl)phenyl)-cyclohexyl)oxy)-2-methyl-N-(pyrimidin-4-yl)pyridine-3-sulfonamide] | 9.39 | –
8 | Cc1nc(O[C@H]2CC[C@H](c3cccc(C(F)(F)F)c3)C[C@@H]2N2CCOCC2)ccc1S(=O)(=O)Nc1ccncn1 [Example 55, 2-methyl-6-(((1S,2S,4S)-2-morpholino-4-(3-(trifluoro-methyl)phenyl)cyclohexyl)-oxy)-N-(pyrimidin-4-yl)pyridine-3-sulfonamide] | 9.28 | –
9 | Cc1ccc([C@H]2CC[C@H](Oc3ccc(S(=O)(=O)Nc4ccncn4)c(C)n3)[C@@H](N(C)C)C2)cc1C(F)(F)F [Example 56, 6-(((1S,2S,4S)-2-(dimethyl-amino)-4-(4-methyl-3-(trifluoromethyl)phenyl)-cyclohexyl)oxy)-2-methyl-N-(pyrimidin-4-yl)pyridine-3-sulfonamide formate] | 9.89 | –
10 | Cc1nc(O[C@H]2CC[C@H](c3cccc(Cl)c3)C[C@@H]2N(C)C)ccc1S(=O)(=O)Nc1ccncn1 [Example 57, 6-(((1S,2S,4S)-4-(3-chloro-phenyl)-2-(dimethylamino)-cyclohexyl)oxy)-2-methyl-N-(pyrimidin-4-yl)pyridine-3-sulfonamide] | 9.04 | –
11 | Cc1cc([C@H]2CC[C@H](Oc3ccc(S(=O)(=O)Nc4ccncn4)c(C)n3)[C@@H](N(C)C)C2)cc(C(F)(F)F)c1 [Example 58, 6-(((1S,2S,4S)-2-(dimethyl-amino)-4-(3-methyl-5-(trifluoromethyl)phenyl)-cyclohexyl)oxy)-2-methyl-N-(pyrimidin-4-yl)pyridine-3-sulfonamide] | 9.45 | –
12 | Cc1nc(O[C@H]2CC[C@H](c3cccc(CC(F)(F)F)c3)C[C@@H]2N(C)C)ccc1S(=O)(=O)Nc1ccncn1 [Example 59, 6-(((1S,2S,4S)-2-(dimethyl-amino)-4-(3-(2,2,2-trifluoro-ethyl)phenyl)-cyclohexyl)-oxy)-2-methyl-N-(pyrimidin-4-yl)pyridine-3-sulfonamide] | 9.03 | –
13 | Cc1nc(O[C@H]2CC[C@H](c3cccc(C(F)(F)F)c3C)C[C@@H]2N(C)C)ccc1S(=O)(=O)Nc1ccncn1 [Example 60, 6-(((1S,2S,4S)-2-(dimethyl-amino)-4-(2-methyl-3-(trifluoromethyl)phenyl)-cyclohexyl)oxy)-2-methyl-N-(pyrimidin-4-yl)pyridine-3-sulfonamide] | 9.04 | –
14 | COc1cc(S(=O)(=O)Nc2ccncn2)cnc1O[C@H]1CC[C@H](c2cccc(C(F)(F)F)c2)C[C@@H]1N(C)C [Example 61, 6-(((1S,2S,4S)-2-(dimethyl-amino)-4-(3-(trifluoromethyl)-phenyl)cyclohexyl)oxy)-5-methoxy-N-(pyrimidin-4-yl)pyridine-3-sulfonamide formate] | 7.97 | –
15 | Cc1nc(O[C@H]2CC[C@H](c3ccc(Cl)c(C(F)(F)F)n3)C[C@@H]2N(C)C)ccc1S(=O)(=O)Nc1ccncn1 [Example 62, 6-(((1S,2S,4S)-4-(5-chloro-6-(trifluoromethyl)pyridin-2-yl)-2-(dimethylamino)-cyclohexyl)oxy)-2-methyl-N-(pyrimidin-4-yl)pyridine-3-sulfonamide] | 8.82 | –
16 | CN(C)[C@H]1C[C@@H](c2cccc(SC(F)(F)F)c2)CC[C@@H]1Oc1ccc(S(=O)(=O)Nc2ccncn2)cn1 [Example 63, 6-(((1S,2S,4S)-2-(dimethy-lamino)-4-(3-((trifluoro-methyl)thio)phenyl)cyclohexyl)oxy)-N-(pyrimidin-4-yl) pyridine-3-sulfonamide] | 8.98 | –
